According to BindingDB's records for doi:10.3109/14756366.2011.604852 (Erzincan University, 2012):
pIC50, pKi: −log10 of the molar value.

Experiments:
Carbonic anhydrase 2 = Carbonic anhydrase 2 (Homo sapiens, UniProt P00918); assay: Esterase Activity Assay; settings: pH 7.4; 25 °C
Experimental: (§1) CA activity was assayed according to method of Verpoorte et al. [Verpoorte et al., J. Biol. Chem., 242:4221-4229] described previously by Innocenti et al. [Innocenti et al., Bioorg. Med. Chem., 18:2159-2164; Innocenti et al., Bioorg. Med. Chem. Lett., 20:5050-5053] CA activity was determined by following thechange in absorbance at 348 nm of 4-nitrophenylacetate (NPA) to 4-nitrophenylate ion over a period of 3 min at 25°C using a spectrophotometer (CHEBIOS UV-VIS). The enzymatic reaction, in a total volume of 3.0 mL, contained 1.4 mL 0.05 M Tris-SO4 buffer (pH 7.4), 1 mL, 3 mM 4-nitrophenylacetate, 0.5 mL H2O and 0.1 mL enzyme solution. A reference measurement was obtained by preparing the same cuvette without enzyme solution. The inhibitory effects of ampicillin sulfate, ceftriaxone, ceftizoxime, ranitidine were examined. All compounds were tested in triplicate at each concentration used. Different inhibitor concentrations were used. HCA-I enzyme activities were measured for ceftriaxone (0.003-0.033 mM), ceftizoxime (0.017-0.096 mM), ranitidine (0.026-0.053 mM) at cuvette concentrations and HCAII enzyme activities were measured for ampicillin sulfate (0.038-0.095 mM), ceftriaxone (0.003-0.021 mM), ceftizoxime (0.026-0.061 mM) and ranitidine (0.032-0.058 mM) at cuvette concentrations.

Carbonic anhydrase 1 = Carbonic anhydrase 1 (Homo sapiens, UniProt P00915); assay: Esterase Activity Assay; settings: pH 7.4; 25 °C
Experimental: as §1

Chain of Carbonic anhydrase 1 (P00915 whole entry): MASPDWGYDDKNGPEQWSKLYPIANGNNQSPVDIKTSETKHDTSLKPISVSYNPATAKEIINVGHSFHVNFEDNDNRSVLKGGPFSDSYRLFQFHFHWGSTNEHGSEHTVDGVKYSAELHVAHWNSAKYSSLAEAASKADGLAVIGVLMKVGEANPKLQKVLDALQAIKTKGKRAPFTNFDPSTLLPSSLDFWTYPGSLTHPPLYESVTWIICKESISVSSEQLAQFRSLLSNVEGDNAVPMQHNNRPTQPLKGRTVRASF

Row | pIC50 (Carbonic anhydrase 2) | pKi (Carbonic anhydrase 2) | pIC50 (Carbonic anhydrase 1) | pKi (Carbonic anhydrase 1) | SMILES
1 | 4.68 | 4.80 | 4.57 | 4.55 | CO/N=C(\C(=O)N[C@@H]1C(=O)N2C(C(=O)O)=C(CSc3nc(=O)c(=O)[nH]n3C)CS[C@H]12)c1csc(N)n1 [(6R,7R)-7-{2-(2-Amino-thiazol-4-yl)-2-[(Z)-methoxyimino]-acetylamino}-3-(2-methyl-5,6-dioxo-1,2,5,6-tetrahydro-[1,2,4]triazin-3-ylsulfanylmethyl)-8-oxo-5-thia-1-aza-bicyclo[4.2.0]oct-2-ene-2-carboxylic acid]
2 | 4.25 | 4.08 | – | – | CC1(C)S[C@@H]2[C@H](NC(=O)[C@H](N)c3ccccc3)C(=O)N2[C@H]1C(=O)O [AY-6108]
3 | 4.10 | 4.29 | 4.10 | 4.06 | CO/N=C(\C(=O)N[C@@H]1C(=O)N2C(C(=O)O)=CCS[C@H]12)c1csc(N)n1 [Ceftizoxime]
4 | 4.18 | 4.53 | 4.26 | 4.26 | CN/C(=C\[N+](=O)[O-])NCCSCc1ccc(CN(C)C)o1 [Ranitidine]
